According to US20240041838A1, “METHODS AND COMPOSITIONS FOR INHIBITION OF NEUTROPHIL RECRUITMENT IN MYCOCARDIAL ISCHEMIA-REPERFUSION INJURY” (University of Connecticut, priority 2022, published 2024):
“And” between values parts separate entries of the source, which are not always exact repeats. Equal values may be shown once. Read-outs that look alike come from different tables or passages of the source.

Legend:
[1] = system: β2 integrins on human neutrophils; test: flow cytometry of β2 integrin activation and exocytosis (mAb24, KIM127, TS1/18) after IL-8; format: cell-based; conditions: for inhibition at 10 µM: Homo sapiens, Neutrophil
Procedure: To monitor the dynamics of β2 integrin activation, 400 μL of 2.5×10^5 cells·mL^−1 neutrophils were assessed by an LSRII analyzer (BD Biosciences, San Jose, CA) for 10 s. After adding 0.5 μg·mL^−1 AF488-conjugated mAb24 and DL550-conjugated KIM127 (final concentration), cells were put back into the analyzer for another 5 minutes. Then, after adding 1 μg·mL^−1 IL-8, cells were put back into the analyzer for another 10 minutes. The curves showing the dynamics of integrin activation (FIGS. 2A, 2B) were generated by FlowJo software (version 10.6). The antibody specificities were validated in our previous study using β2 integrin knockout cells and β2-integrin-activation-deficient talin-1 knockout cells. Compensations were performed before all experiments.
To quantify the percentage of mAb24 and KIM127 epitopes and assess inhibition of β2 integrin exocytosis, pan-CD18 […] TS1/18, which has the same isotype (mouse IgG1) as mAb24 and KIM127, was used. […] Neutrophils were mixed with unconjugated mAb24 (1 μg·mL^−1), KIM127 (1 μg·mL^−1), […] (1 μg·mL^−1), or mouse IgG1 isotype control (1 μg·mL^−1), and incubated with 1 μg·mL^−1 IL-8 at RT for 10 min. After incubation, neutrophils were fixed by 1% PFA at 4° C. for 10 min. After two washes with PBS, cells were incubated with APC-conjugated rat anti-mouse IgG1 secondary mAb (1 μg·mL^−1) at RT for 10 min. After two washes with PBS, cell fluorescence was assessed with an LSRII (BD Biosciences, San Jose, CA) and analyzed with FlowJo software (version 10.6). The quantifications of mAb24, KIM127, TS1/18, and isotype mean fluorescence intensities (MFI) (FIGS. 2C-2E) were analyzed by FlowJo software (version 10.6) and obtained from six replicates. MFI of isotype controls was subtracted as background signal. Since mAb24, KIM127, and TS1/18 are all IgG1 isotypes and we used the same secondary antibody, the percentage of high-affinity and extended β2 integrins (FIGS. 2F and 2G) can be calculated by dividing the MFI of mAb24 and KIM127 by the MFI of TS1/18.

[2] = system: LPS-induced systemic inflammation / acute lung injury; conditions: reported, cited from earlier work
[3] = system: Rac-1 activation in HL60-CXCR2 or HL60 cells; test: Rac-1-GTP pull-down and western blot in HL60 / HL60-CXCR2 cells; format: cell-based; conditions: 10 μM, RT 1 hour
Procedure: The HL60 cells and CXCR2-expressing HL60 cells (HL60-CXCR2)(50) were gifts from Dr. Orion D. Weiner at the University of California San Francisco and Dr. Ann Richmond at the Vanderbilt University School of Medicine, respectively. HL60-CXCR2 cells were selected with G418 ([…]) to maintain CXCR2 expression. Cells were maintained in culture medium (RPMI-1640, 10% FBS, 100 μg·mL^−1 penicillin, 100 μg·mL^−1 streptomycin, and 250 ng·mL^−1 amphotericin B) at 37° C. and 5% CO2. In most experiments, cells were differentiated with 1.3% DMSO for 7 days before assays. Cells were checked monthly for mycoplasma infection using the e-Myco plus Mycoplasma PCR Detection Kit.
After washes, cells were resuspended in RPMI-1640 without phenol red (10^7 cells·mL^−1) and incubated with or without stimulators (100 nM fMLP for HL60, 1 μg·mL^−1 IL-8 for HL60-CXCR2) at RT for 1 minute. Cells were lysed by 1:1 addition of 2× Triton X-100 lysis buffer (final concentration: 1% Triton X-100, 50 mM HEPES pH 7.0, 150 mM NaCl, 10% glycerol, 1.5 mM MgCl2, 1 mM EGTA, 1 mM sodium orthovanadate, 1 mM phenylmethylsulfonyl fluoride, plus protease inhibitor mixture—one Pierce protease inhibitor mini-tablet per 5 mL 2× buffer) on ice for 5 minutes. After centrifuging at 16,000×g, 4° C. for 8 minutes, supernatants were saved as protein samples.

human neutrophils [4] = conditions: 30 mins GM-CSF and fMLP; pretreatment; cited from earlier work
human neutrophils [5] = test: neutrophil viability by flow cytometry (Ghost Dye Blue 516); format: cell-based; conditions: 100 μM Nexinhib20, one hour at room temperature
Procedure: After washes, neutrophils were incubated with Ghost Dye Blue 516 at RT for 15 minutes. After washes, cell fluorescence was assessed with an LSRII (BD Biosciences, San Jose, CA) and analyzed with FlowJo software (version 10.6).

[6] = pharmacokinetics after i.p. injection in mice; format: in vivo, mouse; conditions: plasma
Procedure: Pharmacokinetics was performed through a service provided by the Shanghai Institute of Materia Medica. […] Blood samples (20 μL) were collected at 3 min, 15 min, 45 min, 2 h, 4 h, 8 h, and 24 h through femoral vein phlebotomy. 200 μL of methanol:acetonitrile (1:1, v/v) with internal standard was added to […] of plasma and vortexed thoroughly. After centrifuging at 11000 rpm, RT for 5 min, 20 μL of the supernatant was collected and mixed with 20 μL of water for analysis. Samples were analyzed by a TQ-S triple quadrupole mass spectrometer (Waters, Milford, MA, USA). An Acquity Uplc Beh C18 Column (1.7 μm, 2.0 mm×50 mm, Waters) was used for the analysis. Gradient elution was applied consisting of 5 mM […] containing 0.1% formic acid and methanol:acetonitrile (1/9, v/v) containing 0.1% formic acid.

[7] = system: IL-8-induced Ca^2+ signal in neutrophils; test: intracellular Ca2+ flux by Fluo-4 time-resolved flow cytometry; format: cell-based, human; conditions: 10 μM, RT 1 hour; 1 μg·mL^−1 IL-8
Procedure: To monitor the dynamics of intracellular calcium (Ca^2+) flux, neutrophils (2×10^6 cells·mL^−1 in RPMI-1640 without phenol red plus 2% HSA) were incubated with Fluo-4 (4 μg·mL^−1) for one hour at RT. After washes, neutrophils were resuspended in RPMI-1640 without phenol red plus 2% HSA and assessed by an LSRII analyzer (BD Biosciences, San Jose, CA). One minute after analyzing, 1 μg·mL^−1 IL-8 was added to the cells. Cells were put back into the analyzer for another 9 minutes. The curves showing the dynamics of intracellular Ca^2+ flux (FIG. 2H) were generated by FlowJo software (version 10.6). The quantification of Fluo-4 MFI (FIG. 2I) was analyzed by FlowJo software (version 10.6) and obtained from three individual experiments.

Q: With CC(C)(C)C(=O)/C(=C\c1cccc([N+](=O)[O-])c1)n1cncn1 [Nexinhib20, 4,4-dimethyl-1-(3-nitrophenyl)-2-(1H-1,2,4-triazol-1-yl)-1-penten-3-one] as the compound, how does the “β2 integrin exocytosis (total CD18 surface expression, TS1/18)” value ([1]; 10 μM, RT 1 hour, 10 min 1 μg·mL^−1 IL-8) read?
A: The value was “inhibited significantly”.

Q: What about the “percentage of high-affinity β2 integrins (mAb24 MFI/TS1/18 MFI)” value ([1]; 10 μM, 10 min after IL-8) of the same compound?
A: Its value is “reduced the percentage of high-affinity”.

Q: And the inhibition at 10 µM ([1]; RT 1 hour, 10 min 1 μg·mL^−1 IL-8, read-out: inhibition of IL-8-induced elevation of KIM127 (extended β2 integrins))?
A: The inhibition at 10 µM was roughly 20%.

Q: What about the inhibition at 10 µM ([1]; RT 1 hour, 10 min 1 μg·mL^−1 IL-8, read-out: inhibition of IL-8-induced elevation of mAb24 (high-affinity β2 integrins)) of the same compound?
A: Its inhibition at 10 µM is roughly 75%.

Q: What about the “recruitment of neutrophils to the liver and kidney” value ([2]; LPS-induced systemic inflammation model) of the same compound?
A: Its value is “inhibit recruitment of neutrophils”.

Q: What about the “recruitment of neutrophils to lung lumen and parenchyma” value ([2]; acute LPS-induced lung injury mouse model) of the same compound?
A: The value was “inhibit recruitment of neutrophils”.

Q: What about the “IL-8-induced increase of Rac-1-GTP” value ([3]; HL60-CXCR2 cells, IL-8 1 μg·mL^−1, 1 minute, increase about 80% without drug) of the same compound?
A: The value was “eliminated these increases”.

Q: What about the “fMLP-induced increase of Rac-1-GTP” value ([3]; HL60 cells, fMLP 100 nM, 1 minute, increase about 50% without drug) of the same compound?
A: The value was “eliminated these increases”.

Q: What about the CD11b upregulation (human neutrophils [4]) of the same compound?
A: The CD11b upregulation was “diminished”.

Q: And the neutrophil viability (human neutrophils [5])?
A: Its neutrophil viability is roughly 100%.

Q: And the concentration at 4 h ([6]; male, mouse, ip, 0.8 μmol per mouse, 4 h)?
A: The concentration at 4 h was < 28800 ng/mL and < 96 nM.

Q: What about the half-life ([6]; male, mouse, ip, 0.8 μmol per mouse, one phase exponential decay fit, 95% CI) of the same compound?
A: Its half-life is 11.5 to 16.3 min.

Q: And the “time within which Nexinhib20 was degraded” value [6]?
A: Its value is no more than 2 h.

Q: What about the “IL-8-induced Ca^2+ signal (Fluo-4)” value [7] of the same compound?
A: Its value is “potently blocked”.
